Reference: patent publication US12233060B2, “Inhibitors of Ataxia-Telangiectasia Mutated and Rad3-related protein kinase (ATR) for use in methods of treating cancer” (THE INSTITUTE OF CANCER RESEARCH: ROYAL CANCER HOSPITAL, priority 2016, dated 2025)

Assays:
[1] = tested on: SS tumour cell lines (HS-SY-II, ASKA, YAMOTO, CME1, SYO1); experiment: Five-day cell viability (CellTiter-Glo) in synovial sarcoma tumour cell lines; assay type: cell-based, human
Text: FIG. 8. ATR genetic dependency synovial sarcoma tumour cells—part 1. A. ATR siRNA Z scores from the siRNA screens described in FIG. 7, classified according to the cancer histology of tumour cell lines. B. Dose-response survival curves illustrating sensitivity of SS tumour cell lines to the ATR small molecule inhibitor (ATRi) VX970, compared to ATRi resistant HCT116 cells. Cells were exposed to drugs for five days and cell viability estimated using CellTiter-Glo. For each SS tumour cell line, dose response ANOVA p<0.0001 vs. HCT116. C. Dose-response survival curves illustrating sensitivity of SS tumour cell lines to VX970, compared to ATRi resistant ARID1A wild type HCT116 cells (HCT116 ARID1A^+/+) and ARID1A defective HCT116 cells (HCT116 ARID1A^−/−). Cells were exposed to drugs for five days and cell viability estimated using CellTiter-Glo. For each SS tumour cell line and HCT116 ARID1A^−/−, dose response ANOVA p<0.0001 vs. HCT116 ARID1A^+/+. D. VX970 area under the curve (AUC) values in tumour cell lines. ARID1A defective cells indicated as “ARID1A^−/−”, Ewings sarcoma tumour cell lines shown as “EWS”. E. Anti-tumour response in mice bearing established synovial sarcoma PDX, SA13412, to treatment with VX970. Median tumour volumes after the initiation of VX970 treatment are shown. Error bars represent standard error of the mean (SEM). F. Kaplan-Meier survival plot of data from (E). log rank Mantel p=0.026. G. Western blot illustrating expression of synovial sarcoma fusion proteins in HCT116 cells. A SS18-SSX1 variant with the final eight residues of SSX1 deleted (Δ71-78) is shown as d71-78. H. Bar chart illustrating induction of AXIN2 mRNA after expression of synovial sarcoma fusion proteins in HCT116 cells. I-K. Dose-response survival curves illustrating that expression of synovial sarcoma fusion proteins in HCT116 cells causes ATRi sensitivity.
FIG. 9. ATR genetic dependency synovial sarcoma tumour cells—part 2. […] Cells were transfected with ATR siRNAs and cell viability estimated five days later by the use of Cell Titre Glo. Bar chart showing surviving fractions are shown left and middle. Western blot illustrating ATR protein silencing is shown right. Z scores from the siRNA screens described in FIG. 7, classified according to the cancer histology of tumour cell lines. B. Dose-response survival curves illustrating sensitivity of SS tumour cell lines to the ATR small molecule inhibitor (ATRi) VX970, compared to ATRi resistant HCT116 cells and non-tumour cells (HFF1, MCF10A). […]
Having confirmed the sensitivity of SS tumour cell lines to siRNA in validation experiments (FIG. 9A), we assessed the sensitivity of the five SS tumour cell lines to the clinical ATR inhibitor (ATRi), VX970 (Vertex Pharmaceuticals). […]

HCT116 cells = experiment: VX-970 dose response after siRNA silencing of BAF components; assay type: cell-based, human; conditions: HCT116, 5 days exposure; p<0.0001 ANOVA
Protocol: FIG. 6. BAF complex deficiency causes sensitivity to ATR inhibition. A. Schematic of BAF complex composition in human cells. B. VX-970 dose response curves from HCT116 cells transfected with siRNA targeting ARID1B or SMARCA4. 48 hours after transfection cells were exposed to VX-970 for 5 days. Error bars represent SD from triplicate experiments. p<0.0001, ANOVA for siARID1B and siSMARCA4 vs. siCON. C. Western blots illustrating ARID1B and SMARCA4 silencing in experiment (B). D. VX-970 dose response curves from four OCCC cell lines, 3 SMARCA4 wildtype (blue; RMG1, KK and ES2) and 1 SMARCA4 mutant (red; TOV112D). E. Bar chart illustrating surviving fraction after five days VX-970 exposure in HCC1143 and He1a cells transfected with siRNA targeting either SMARCA4 or ARID1A *p<0.05 by Student's t-test compared to siCon. F. Western blot illustrating level of chromatin bound TOP2A in HCT116 cells transfected siRNA targeting ARID1A, ARID1B or SMARCA4. Cells were analysed 48 hours after transfection. G. A model for the proposed mechanism driving the sensitivity of ARID1A-deficient cells to ATRi. […]
Short-term survival assays were performed in 384-well plates. […] Drug was added 24 h after seeding and cells were continuously exposed to the drug for five days, after which cell viability was estimated using CellTitre-Glo luminescence (Promega). […] Colonies were counted manually. […]

## CNCc1ccc(-c2cc(-c3nc(-c4ccc(S(=O)(=O)C(C)C)cc4)cnc3N)on2)cc1 [VX-970, 5-[4-(Isopropylsulfonyl)phenyl]-3-(3-{4-[(methylamino)methyl]phenyl}-1,2-oxazol-5-yl)-2-pyrazinamine]
[1]; AUC and SF50 comparison
  sensitivity of SS tumour cell lines vs Ewing's sarcoma and ARID1A defective tumour cells: VX970 sensitivity comparable
[1]; Homo sapiens, 120 h, each of five SS tumour cell lines, five days exposure, read-out: SF50 (concentration required to cause 50% reduction in cell survival)
  IC50: ~100 nM
[1]; five days
  sensitivity of SS tumour cell lines vs ARID1A defective HCT116 cells: as sensitive to VX970 as HCT116 cells
[1]; five days, ANOVA p<0.0001
  sensitivity of SS tumour cell lines vs ATRi resistant HCT116 cells: profoundly sensitive to VX970
HCT116 cells
  VX-970 sensitivity after silencing of SMARCA4, ARID1B or SMARCB1: enhanced sensitivity
